What was measured:
Assay in all cases: relative viability (nuclei count vs DMSO), 5 days (fraction); higher = more cells survive
[1] = compound: C#Cc1cccc(Nc2ncnc3cc(OC)c(OCCCCCCC(=O)NO)cc23)c1 [CUDC-101] + CC1(C)CCC(c2ccc(Cl)cc2)=C(CN2CCN(c3ccc(C(=O)NS(=O)(=O)c4ccc(N[C@H](CCN5CCOCC5)CSc5ccccc5)c(S(=O)(=O)C(F)(F)F)c4)cc3)CC2)C1 [Navitoclax] (partner 0.5 µM)
Summary of the method: (§1)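 Relative viability was taken as the ratio of nuclei in treated wells to nuclei in vehicle wells. Lung cancer cell lines in 1536-well plates received compounds by pin tool one day after seeding, either one drug alone or a fixed anchor-drug dose plus five library-drug doses (not always all listed) in √10 steps. Nuclei were counted on 4× images after 5 days of treatment, and values are medians of duplicate plates.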

[2] = compound: C#Cc1cccc(Nc2ncnc3cc(OC)c(OCCCCCCC(=O)NO)cc23)c1 [CUDC-101] + CC(=O)Nc1cccc(-n2c(=O)n(C3CC3)c(=O)c3c(Nc4ccc(I)cc4F)n(C)c(=O)c(C)c32)c1 [Trametinib] (partner 0.02 µM)
Summary of the method: as §1

[3] = compound: COc1cc2/c(=N/c3ccc(Br)cc3F)nc[nH]c2cc1OCC1CCN(C)CC1 [Vandetanib] + Cc1nc(Nc2ncc(C(=O)Nc3c(C)cccc3Cl)s2)cc(N2CCN(CCO)CC2)n1 [Dasatinib] (partner 0.075 µM)
Summary of the method: as §1

[4] = compound: COc1cc2/c(=N/c3ccc(Br)cc3F)nc[nH]c2cc1OCC1CCN(C)CC1 [Vandetanib] + O=C(c1cc(Cc2n[nH]c(=O)c3ccccc23)ccc1F)N1CCN(C(=O)C2CC2)CC1 [Olaparib] (partner 8 µM)
Summary of the method: as §1

| Cell Line | relative viability ([1]; first compound 0.01 µM) | relative viability ([1]; first compound 0.03162 µM) | relative viability ([1]; first compound 0.1 µM) | relative viability ([1]; first compound 0.3162 µM) | relative viability ([1]; first compound 1 µM) | relative viability ([2]; first compound 0.01 µM) | relative viability ([2]; first compound 0.03162 µM) | relative viability ([2]; first compound 0.1 µM) | relative viability ([2]; first compound 0.3162 µM) | relative viability ([2]; first compound 1 µM) | relative viability ([3]; first compound 0.02 µM) | relative viability ([3]; first compound 0.06325 µM) | relative viability ([3]; first compound 0.2 µM) | relative viability ([3]; first compound 0.6325 µM) | relative viability ([3]; first compound 2 µM) | relative viability ([4]; first compound 0.02 µM) | relative viability ([4]; first compound 0.06325 µM) | relative viability ([4]; first compound 0.2 µM) | relative viability ([4]; first compound 0.6325 µM) | relative viability ([4]; first compound 2 µM) |
| --- | --- | --- | --- | --- | --- | --- | --- | --- | --- | --- | --- | --- | --- | --- | --- | --- | --- | --- | --- | --- |
| NCI-H2228 | 0.941 | 0.646 | 0.607 | 1.11 | 0.846 | 0.553 | 0.467 | 0.486 | 0.912 | 0.537 | 0.464 | 0.478 | 0.503 | 0.463 | 0.481 | 0.65 | 0.566 | 0.719 | 0.661 | 0.559 |
| NCI-H2347 | 0.88 | 0.797 | 0.751 | 0.937 | 0.783 | 0.285 | 0.264 | 0.278 | 0.294 | 0.259 | 0.299 | – | 0.312 | 0.323 | 0.345 | 0.538 | 0.525 | 0.596 | 0.692 | 0.553 |
| NCI-H2405 | 1.12 | 0.842 | 0.953 | 1.17 | 0.665 | 0.682 | 0.558 | 0.658 | 0.779 | 0.551 | 0.217 | 0.183 | 0.2 | 0.187 | 0.199 | 0.835 | 0.816 | 0.895 | 0.948 | 0.837 |
| NCI-H3122 | 0.982 | 0.987 | 1.06 | 1.05 | 1.06 | 0.201 | 0.224 | 0.198 | 0.243 | 0.228 | 0.683 | 0.673 | 0.122 | 0.76 | 0.797 | 0.617 | 0.576 | 0.232 | 0.567 | 0.621 |
| PC-3 [JPC-3] | 0.776 | 0.749 | 0.506 | 0.613 | 0.342 | 0.608 | 0.519 | 0.494 | 0.455 | 0.323 | 0.952 | 0.865 | 0.954 | 0.497 | 0.571 | 1.06 | 0.961 | 1.06 | 0.747 | 0.557 |
| PC-14 | 1.08 | 1.05 | 1.06 | 0.754 | 0.265 | 0.928 | 0.605 | 0.619 | 0.233 | 0.0423 | 0.246 | 0.136 | 0.0576 | 0.0422 | 0.0429 | 0.25 | 0.248 | 0.26 | 0.217 | 0.117 |
| RERF-LC-KJ | 1.17 | 1.07 | 1.21 | 1.17 | 0.666 | 0.908 | 0.955 | 0.865 | 0.775 | 0.672 | 0.767 | 0.868 | 0.756 | 0.758 | 0.683 | 0.891 | 0.959 | 0.898 | 0.75 | 0.83 |
| SK-LU-1 | 1.03 | 0.774 | 0.852 | 0.662 | 0.489 | 0.475 | 0.439 | 0.551 | 0.663 | 0.456 | 0.195 | 0.151 | 0.184 | 0.18 | 0.173 | 0.496 | 0.313 | 0.54 | 0.437 | 0.597 |
| SK-MES-1 | 1.27 | 1.37 | 1.28 | 1.16 | 1.12 | 0.488 | 0.488 | 0.493 | 0.431 | 0.319 | 0.358 | 0.33 | 0.347 | 0.27 | 0.286 | 0.71 | 0.676 | 0.708 | 0.606 | 0.424 |
| SW 1573 | 1.2 | 0.897 | 0.951 | 1.23 | 0.901 | 0.638 | 0.5 | 0.599 | 0.592 | 0.392 | 0.449 | 0.577 | 0.598 | 0.441 | 0.674 | 0.434 | 0.416 | 0.393 | 0.521 | 0.489 |
